Like-named read-outs stand apart in the source and are kept apart here.
Experiments:
[1] = molecular target: T1, full length recombinant Pim-1 protein (Homo sapiens, UniProt P11309); assay: Pim-1 enzyme assay (HTRF, phosphorylation of biotinylated-BAD (S112) peptide); type: biochemical; settings: enzyme assay, Pim-1; read-out: Pim_1_IC50
T1 construct: by full length recombinant Pim-1, Pim-2, or Pim-3 protein; hexahistidine tag followed by a thrombin cleavage site (N); made in house; host or cells: Sf9 (baculovirus) or E. coli (pET28)
T1 sequence (P11309 whole entry): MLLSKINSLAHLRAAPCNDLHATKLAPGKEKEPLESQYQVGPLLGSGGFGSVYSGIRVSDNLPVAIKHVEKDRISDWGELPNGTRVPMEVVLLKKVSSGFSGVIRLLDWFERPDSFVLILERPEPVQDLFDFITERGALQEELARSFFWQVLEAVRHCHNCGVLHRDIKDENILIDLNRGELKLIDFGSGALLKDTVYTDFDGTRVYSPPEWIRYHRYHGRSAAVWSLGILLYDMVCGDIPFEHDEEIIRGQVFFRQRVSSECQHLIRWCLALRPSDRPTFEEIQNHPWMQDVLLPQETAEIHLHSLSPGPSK
Procedure, shortened: (§1)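 Kinase: full-length human Pim-1/Pim-2, His6-thrombin tagged. Substrate biotin-BAD (S112) peptide. Buffer 60 mM Hepes pH 7.0, 0.05% BSA, 2 mM DTT. Stop 3 mM EDTA. Detection HTRF (Eu anti-pBAD/SA-APC). IC50 by 4-parameter logistic on POC.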

[2] = molecular target: T2, full length recombinant Pim-3 protein (Homo sapiens, UniProt Q86V86); assay: Pim-3 enzyme assay (HTRF, phosphorylation of biotinylated-BAD (S112) peptide); type: biochemical; settings: read-out: Pim3 IC50
T2 construct: by full length recombinant Pim-1, Pim-2, or Pim-3 protein; purchased Millipore (UK)
Description: Pim-3 was purchased from Millipore (UK).
The phosphorylation of biotinylated-BAD (S112) peptide by full length recombinant Pim-1, Pim-2, or Pim-3 protein was detected with streptavidin:Allophycocyanin (APC) conjugate and a europium (Eu) labeled antibody directed against phosphorylated-BAD (S112). […] The fluorescence is directly proportional to the amount of phosphorylated BAD peptide present in the reaction.
A reference compound was included on each assay plate in order to validate that plate; on one plate of every assay run, two additional reference compounds were included.
The final buffer conditions were as follows: 60 mM Hepes, pH 7.0, 0.05% BSA, 2 mM DTT. […] The reaction was stopped by the addition of 3 mM EDTA, and fluorescence was measured by an HTRF® Rubystar microplate reader. For each plate, percent of control (POC) values were calculated for each well. Values for the IC50 IP were estimated using a standard 4-parameter logistic model.

[3] = molecular target: T3, Pim-1 stably transfected into the U2OS human osteogenic sarcoma line (Homo sapiens, UniProt P11309); assay: Pim cell assay, phospho-BAD normalized against total BAD, U2OS stably transfected with Pim-1; type: cell-based; settings: read-out: Pim1_Cell_IC50
T3 construct: expressed in transfected cells; host or cells: U2OS human osteogenic sarcoma line
T3 sequence (P11309 whole entry): as the sequence (P11309 whole entry) above
Procedure, shortened: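 U2OS cells stably expressing Pim-1 or Pim-2 were plated overnight at 37 °C, then dosed over a 10-point curve (final 0.3% DMSO; DMSO alone as high control). Lysates assayed for phospho- and total BAD by Meso Scale immunoassay; % phosphoprotein = (2×phospho)/(phospho+total)×100.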

[4] = molecular target: T4, full length recombinant Pim-2 protein (Homo sapiens, UniProt Q9P1W9); assay: Pim-2 enzyme assay (HTRF, phosphorylation of biotinylated-BAD (S112) peptide); type: biochemical; settings: enzyme assay, Pim-2; read-out: Pim2_IC50
T4 construct: by full length recombinant Pim-1, Pim-2, or Pim-3 protein; hexahistidine tag followed by a thrombin cleavage site (N); made in house; host or cells: Sf9 (baculovirus) or E. coli (pET28)
T4 sequence (Q9P1W9 whole entry): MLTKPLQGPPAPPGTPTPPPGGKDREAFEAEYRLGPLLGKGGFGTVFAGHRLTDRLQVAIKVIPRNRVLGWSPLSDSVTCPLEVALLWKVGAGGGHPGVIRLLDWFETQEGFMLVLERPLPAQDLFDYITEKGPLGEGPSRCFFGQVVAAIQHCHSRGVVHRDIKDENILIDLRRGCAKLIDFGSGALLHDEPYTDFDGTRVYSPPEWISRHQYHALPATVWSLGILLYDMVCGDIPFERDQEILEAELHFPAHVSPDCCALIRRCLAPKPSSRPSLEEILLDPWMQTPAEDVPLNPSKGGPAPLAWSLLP
Procedure, shortened: as §1

[5] = U2OS cells stably transfected with Pim-1, phospho-BAD, high dose […]

Fc1ncc(Cl)cc1-c1ccc2[nH]nc(-c3cncc(O[C@@H]4CCCNC4)n3)c2c1 [Example 117, 5-(5-chloro-2-fluoro-3-pyridinyl)-3-(6-((3R)-3-piperidinyloxy)-2-pyrazinyl)-1H-indazole]
IC50 [1]: 18 nM | IC50 [2]: 5 nM | IC50 [3, 5]: 761 nM | IC50 [4]: 66 nM

Nc1cc(-c2ccc3[nH]nc(-c4cncc(N5CCC(N)CC5)n4)c3c2)ccc1N1CCOCC1 [Example 105, 1-(6-(5-(3-amino-4-(4-morpholinyl)phenyl)-1H-indazol-3-yl)-2-pyrazinyl)-4-piperidinamine]
IC50 [1]: 2 nM | IC50 [2]: 5 nM | IC50 [3, 5]: 484 nM | IC50 [4]: 43 nM

c1ccc(-c2ccc3[nH]nc(-c4cncc(O[C@@H]5CCCNC5)n4)c3c2)cc1 [Example 134, 5-phenyl-3-(6-((3R)-3-piperidinyloxy)-2-pyrazinyl)-1H-indazole]
IC50 [1]: 7 nM | IC50 [2]: 14 nM | IC50 [3, 5]: 316 nM | IC50 [4]: 37 nM

Fc1cccc(F)c1-c1ccc2[nH]nc(-c3cncc(O[C@H]4CNC[C@@H](F)C4)n3)c2c1 [Example 196, 5-(2,6-difluorophenyl)-3-(6-(((3R,5S)-5-fluoro-3-piperidinyl)oxy)-2-pyrazinyl)-1H-indazole]
IC50 [1]: 4 nM | IC50 [2]: 6 nM | IC50 [3, 5]: 146 nM | IC50 [4]: 19 nM

Fc1cccc(F)c1-c1ccc2[nH]nc(-c3cncc(O[C@@H]4CNCC[C@H]4F)n3)c2c1 (single isomer, unassigned) [Example 19, 5-(2,6-difluorophenyl)-3-(6-(trans-4-fluoropiperidin-3-yloxy)pyrazin-2-yl)-1H-indazole]
IC50 [1]: 5 nM | IC50 [2]: 7 nM | IC50 [3, 5]: 254 nM | IC50 [4]: 28 nM

NC1CCN(c2cncc(-c3c[nH]c4ccc(-c5c(F)cccc5F)nc34)c2)CC1 [Example 32, 1-(5-(5-(2,6-difluorophenyl)-1H-pyrrolo[3,2-b]pyridin-3-yl)pyridin-3-yl)piperidin-4-amine]
IC50 [1]: 19 nM | IC50 [2]: 67 nM | IC50 [3]: 907 nM | IC50 [4]: 586 nM

CC(C)Oc1nccc(-c2ccc3[nH]nc(-c4cncc(O[C@@H]5CCCNC5)n4)c3c2)n1 [Example 153, 5-(2-(1-methylethoxy)-4-pyrimidinyl)-3-(6-((3R)-3-piperidinyloxy)-2-pyrazinyl)-1H-indazole]
IC50 [1]: 12 nM | IC50 [2]: 27 nM | IC50 [3, 5]: 174 nM | IC50 [4]: 165 nM

COc1cc(-c2ccc3[nH]nc(-c4cncc(O[C@@H]5CCCNC5)n4)c3c2)ccn1 [Example 160, 5-(2-methoxy-4-pyridinyl)-3-(6-((3R)-3-piperidinyloxy)-2-pyrazinyl)-1H-indazole]
IC50 [1]: 5 nM | IC50 [2]: 12 nM | IC50 [3, 5]: 108 nM | IC50 [4]: 24 nM

COc1nc2ccccc2cc1-c1ccc2[nH]nc(-c3cncc(N4CCC(N)CC4)n3)c2c1 [Example 2, 1-(6-(5-(2-methoxyquinolin-3-yl)-1H-indazol-3-yl)pyrazin-2-yl)piperidin-4-amine]
IC50 [1]: 28 nM | IC50 [2]: 61 nM | IC50 [3, 5]: 2630 nM | IC50 [4]: 769 nM

CC(C)Oc1cccc(-c2ccc3[nH]nc(-c4cncc(O[C@@H]5CCCNC5)n4)c3c2)c1 [Example 146, 5-(3-(1-methylethoxy)phenyl)-3-(6-((3R)-3-piperidinyloxy)-2-pyrazinyl)-1H-indazole]
IC50 [1]: 7 nM | IC50 [2]: 31 nM | IC50 [3, 5]: 996 nM | IC50 [4]: 84 nM

COc1cccc(-c2ccc3[nH]nc(-c4cncc(O[C@@H]5CCCNC5)n4)c3c2)n1 [Example 137, 5-(6-methoxy-2-pyridinyl)-3-(6((3R)-3-piperidinyloxy)-2-pyrazinyl)-1H-indazole]
IC50 [1]: 8 nM | IC50 [2]: 6 nM | IC50 [3, 5]: 585 nM | IC50 [4]: 63 nM

Nc1nccc(N2CCc3ccc(-c4ccc5[nH]nc(-c6cncc(N7CCC(N)CC7)n6)c5c4)cc32)n1 [Example 113, 4-(6-(3-(6-(4-amino-1-piperidinyl)-2-pyrazinyl)-1H-indazol-5-yl)-2,3-dihydro-1H-indol-1-yl)-2-pyrimidinamine]
IC50 [1]: 17 nM | IC50 [2]: 33 nM | IC50 [3, 5]: > 15800 nM | IC50 [4]: 549 nM

Reference: patent US9090593B2, “Bicyclic compounds as Pim inhibitors” (AMGEN INC., priority 2010, dated 2015)
